Data on eight compounds can be found in patent US4302578A, “Cephalosporin antibiotics” (priority 1971, dated 1981).

Data set [1] relates to Aerobacter cloacae (MB-2646). Kind of data set: bacterial inactivation, cell-free extract. Format: biochemical. How it is done:
The ability of Antibiotic 810A and cephalosporin C to withstand the degradative effect of the culture Aerobacter cloacae (MB-2646) was also determined. This culture is gram-negative and resistant to cephalosporin C. […] The source of the inactivating substance is a 1:160 dilution of the filtrate of an 18 hour 37° C. shake culture of Aerobacter cloacae MB-2646 in nutrient broth containing 0.2% yeast extract. Table XIV, infra, indicates the percent inactivation of Antibiotic 810A, cephalothin, cephaloridine and cephalosporin C on Vibrio percolans (MB-1272) via this method:
Using the same assay procedure as described above, Table XV, infra, indicates the relative resistance of Antibiotic 810A to enzymatic inactivation by Aerobacter cloacae. The starting concentration is 250 μg./ml. Results are expressed in μg./ml.

In data set [2] the test system is gram-negative and gram-positive bacteria. The conditions noted are these: cited from earlier work.
For data set [3], the system named is penicillinase. The settings on record: cited from earlier work.
Data set [4] deals with Alcaligenes faecalis (MB-9). In words: bacterial inactivation, washed bacterial cells.
Data set [5] concerns Proteus morganii 251. Kind of data set: bacterial inactivation. How it is done:
(§1) These cultures are: Escherichia coli 236, Proteus morganii 251, Proteus morganii 356 and Proteus mirabilis 241. […] In conducting the assay individual mixtures of the organisms and one of the antibiotic were sampled after four hours incubation and assayed for residual antibiotic activity. The procedure is the same assay method as described above against Alcaligenes faecalis MB-9 and A. viscosus MB-12.

Data set [6] relates to Escherichia coli 236. Kind of data set: bacterial inactivation. The settings on record: four hours incubation; on B. subtilis (MB-964); 240 min. How it is done:
as §1

In data set [7] the test system is Proteus morganii 356. In words: bacterial inactivation. The procedure: as §1
Data set [8] relates to Proteus mirabilis 241. In words: bacterial inactivation. The procedure: as §1
The subject of data set [9] is Proteus morganii 356. In words: mouse protection test, clinical isolate resistant to cephalosporins. It counts as in vivo, mice. The conditions noted are these: Subcutaneous Route × 2 Doses (average of Two Trials). The source says: (§2) The method employed in this characterization is as follows: Female white Swiss mice, average weight 20-23 grams, were infected intraperitoneally with 3-20 times the number of organisms calculated to be lethal for 50% of the infected control animals (3-20 LD50 doses). At the time of infection and again six hours later, therapy was given by the designated route. Controls of the virulence of the culture and the toxicity of the antibiotic for uninfected mice were included in the tests. Seven days after infection the test was considered complete and the amount of the antibiotic (I) that would be required to protect 50% of the infected and treated animals was calculated by the method of Knudsen and Curtis; J. Amer. Stat. Assoc. Vol. 42: page 282 (1947).
Administration was by subcutaneous injection. At the completion of the test period, usually seven days after administration, the amount of product required to protect 50% of the mice (ED50) from this otherwise fatal injection was calculated:
In addition to the aforementioned in vivo trails of the product, a clinical isolate of Proteus morganii 356 which is resistant to cephalosporins and capable of degrading cephalosporin C, was employed in a mouse protection test performed in the same manner as reported above.

Data set [10] has as its system gram-negative and gram-positive infections. Kind of data set: in vivo protection against infection (summary statements). Also noted: species or system mice. The settings on record: for protection: 4000 mg. × dose, subcutaneous, infection not marked; for protection against infections, oral: given orally; for in vivo protection / activity: mouse.
Excerpt: as §2
The method employed in these studies is the same as described above with regard to the in vivo characterization of 810A.

Data set [11] can be described thus: toxicity for uninfected mice. The conditions noted are these: mouse, in vivo.
Excerpt: as §2

The subject of data set [12] is gram-negative and gram-positive bacteria. Kind of data set: in vitro antibacterial activity (summary statements). Format: cell-based.
The subject of data set [13] is certain microorganisms. Kind of data set: resistance to bacterial inactivation / enzymatic degradation (summary statements). It counts as biochemical. The source says:
Bacterial Inactivation With 810A: An in vitro study was designed to determine the resistance of Antibiotic 810A, to bacterial inactivation as compared with cephalosporin C, cephaloridine and cephalothin.

The subject of data set [14] is cephalosporinases. In words: resistance to cephalosporinases / penicillinase. It counts as biochemical.
Data set [15] relates to Salmonella gallinarum MB-1287. In words: disc-plate bioassay of derivatives. Format: cell-based. The conditions noted are these: 100γ/ml (Example 77). The source says:
(§3) Bioassay: The disc zone sizes in the following table are expressed in mm. for equal concentrations of antibiotic.

Data set [16] relates to Vibrio percolans MB-1272. In words: disc-plate bioassay. The conditions noted are these: for zone of inhibition at 100 µg/mL / zone of inhibition at 5 µg/mL: Comamonas terrigena.
Data set [17] has as its system Escherichia coli W-MB-60. In words: disc-plate bioassay of derivatives. Format: cell-based. The settings on record: 100 γ/ml (Example 78).
Excerpt: (§4) Bioassay: The disc zone sizes in the following table are expressed in mm. for 100 γ/ml of antibiotic.
as §3

For data set [18], the system named is Pseudomonas stutzeri MB-1231. In words: disc-plate bioassay of derivatives. It counts as cell-based. The settings on record: Stutzerimonas stutzeri, MB1231, equal concentrations, 100γ/ml (Example 71); read-out: disc zone size.
Excerpt: as §4, §3

Data set [19] in a line: isoelectric point and pH stability. The conditions noted are these: for stability, low pH: pH 1.5. Format: physicochemical.
Data set [20] can be described thus: urinary excretion and blood levels. Format: in vivo, mice. The conditions noted are these: mouse.
Setting [21] is: 2 Hour Incubation, assayed on V. percolans (MB-1272) plates.
[22] abbreviates: four hours incubation, on B. subtilis (MB-964), 240 min.

“Also recorded” adds a separate entry of the source. Structures can show the parent of a compound that is named as a salt. Where two headings read alike, the source gives them in different places.

For `CC(=O)OCC1=C(C(=O)O)N2C(=O)[C@@H](NC(=O)CCC[C@@H](N)C(=O)O)[C@H]2SC1` [Cephalosporin C], the “Percent Inactivation After Incubation With Cell-Free Extract” value in data set [1] (setting [21]) was found to be 96%. The “antibacterial activity (background, words)” value in data set [2] is on record as “only moderately active”. Further, the “resistance to / degradation by penicillinase” value in [3] is “possesses an inherent resistance to penicillinase”. The “Percent Inactivation After Incubation With Washed Bacterial Cells” value in [4] (3 Hour Incubation, assayed on V. percolans (MB-1272) plates) is above 99%; in [4] (3 Hours Incubation, assayed on B. subtilis (MB-964) plates), above 99%. Further, the percent inactivation in [5] (setting [22]) is above 99%; in data set [6], above 99%; in [7] (setting [22]), above 99%; in [8] (setting [22]), 72%.
Take `CC1(C)S[C@@H]2[C@H](NC(=O)Cc3ccccc3)C(=O)N2[C@H]1C(=O)O` [Penicillin G]: in [3], the “resistance to / degradation by penicillinase” value is listed as “in the presence of penicillinase it is degraded to a form which is ineffective against most pathogens”.
Take `O=C(Cc1cccs1)N[C@@H]1C(=O)N2C(C(=O)[O-])=C(C[n+]3ccccc3)CS[C@H]12` [Cephaloridine]: the “Percent Inactivation After Incubation With Cell-Free Extract” value in data set [1] (aerobacter cloacae cell-free extract, 2 h) was found to be 96%. Also, the ED50 in data set [9] is reported as 9,270 μg. The protection result in data set [10] is given as “failed to protect at 4000 mg. × dose”.
As for `COC(=Cc1ccc(OS(=O)(=O)O)cc1)C(=O)OCC1=C(C(=O)O)N2C(=O)[C@](NC(=O)CCC[C@@H](N)C(=O)O)(OC)[C@H]2SC1` [7β-(D-5-amino-5-carboxyvaleramido)-3-(α-methoxy-p-sulfooxycinnamoyloxymethyl)-7-methoxy-3-cephem-4-carboxylic acid], the “toxicity” value in [11] is recorded as “low order of toxicity in mice”. The “bactericidal action / development of resistance” value in [12] is recorded as “bactericidal”. In data set [10], the “protection against infections, oral” value is “protects against infections due to Proteus vulgaris”; the “in vivo protection / activity” value is “when administered subcutaneously, it is effective against a variety of gram-negative and gram-positive infections”. For the same compound, in [13], the “resistance to inactivation / enzymatic degradation” value is recorded as “more resistant to enzymatic degradation than cephalosporin C”. Moreover, the resistance to cephalosporinases result in [14] is recorded as “greater resistance to cephalosporinases than cephalothin”.
As to `CC(=O)OCC1=C(C(=O)O)N2C(=O)[C@@H](NC(=O)Cc3cccs3)[C@H]2SC1` [Cephalothin], in data set [1] (setting [21]), the “Percent Inactivation After Incubation With Cell-Free Extract” value came to 66%. For the same compound, the ED50 in data set [9] is given as 20,000 μg. In data set [10], the protection entry is listed as “failed to protect at 4000 mg. × dose”.
Turning to `CO[C@@]1(NC(=O)CCC[C@@H](N)C(=O)O)C(=O)N2C(C(=O)O)=C(COC(N)=O)CS[C@@H]21` [Disodium Salt of 842A], the results for the disc zone size in data set [15] and in data set [17] were 27 mm and 18 mm, respectively. Besides, the zone of inhibition at 100 µg/mL is above 35 mm in data set [16] (MB1272, read-out: disc zone size, 100γ/ml (Example 77)); 23 mm in data set [16] (MB1272, read-out: disc zone size, 100 γ/ml (Example 78)); 21 mm in data set [18]. For the same compound, the zone of inhibition at 5 µg/mL in [16] (MB1272, read-out: disc zone size, Example 70, (5γ/ml) printed at end of line, head 100γ/ml) was found to be 18 mm; in data set [16] (MB1272, read-out: disc zone size, equal concentrations, 5γ/ml (Example 71)), 18 mm.
As to `CO[C@@]1(NC(=O)CCC[C@@H](N)C(=O)O)C(=O)N2C(C(=O)O)=C(COC(N)=O)CS[C@@H]21` [Example 842A], the “antibacterial activity” value in data set [12] was “exhibits activity against Salmonella schottmuelleri 3010, S. gallinarum and S. typhosa”; in [12] (listed as Antibiotic 842A), “inhibits the growth of the following gram-negative bacteria: Escherichia coli, Proteus vulgaris, Alcaligenes faecalis, Brucella bronchiseptica, Salmonella gallinarum, Vibrio percolans and Xanthomonas vesicatoria; also recorded: inhibits the growth of the following gram-positive bacteria: Staphylococcus aureus, Sarcina lutea and Bacillus subtilis; also recorded: enhanced activity against gram-negative microorganisms”. Also, the “bactericidal action / development of resistance” value in [12] is “resistance to it develops slowly and it is bactericidal”. The “stability, high pH” value was “unstable above pH 7” in data set [19] and “unstable above pH 9.0” in data set [19] (listed as Antibiotic 842A). Moreover, the “stability, low pH” value in data set [19] is reported as “stable at pH 1.5”; in [19] (listed as Antibiotic 842A) it was “relatively stable at pH 1.5”. The “Percent Inactivation After Incubation With Washed Bacterial Cells” value in data set [4] (4 Hour Incubation, assayed on B. subtilis (MB-964) plates) was determined as 0%. Further, the “blood levels / excretion” value in data set [20] (in vivo) is given as “produces rapid blood levels; also recorded: rapidly excreted in the urine”. The dose excreted at 6 h in data set [20] (urine, within six hours after administration, read-out: eliminated in the urine) was around 100%. For the same compound, the “protection against infections, oral” value in [10] was “protects against infections due to Paracolobactrum arizoniae 3270, Proteus vulgaris 1810, and Salmonella schottmuelleri 3010”. In addition, in data set [10] (listed as Antibiotic 842A), the “in vivo protection / activity” value is “protects against infection with three species of Proteus, two of Salmonella, one strain of Escherichia coli, two of Klebsiella and also against Paracolobactrum arizoniae, Aerobacter aerogenes, Pasteurella multocida and Diplococcus pneumoniae E400; also recorded: exhibits a significant in vivo gram-negative effect with a potency which, in general, is greater than cephalothin”. Moreover, the “resistance to inactivation / enzymatic degradation” value in data set [13] was “more resistant to enzymatic degradation than cephalosporin C”; in data set [13] (listed as Antibiotic 842A) it was “more stable than the latter against certain microorganisms; also recorded: more resistant than cephalosporin C to inactivation by A. faecalis, A. viscosus, Escherichia coli 236, Proteus morganii 251, Proteus morganii 236 and Proteus mirabilis 241”. Besides, the percent inactivation was 80% in data set [5] (bacterial cells, 4 h); 38% in data set [6]; 69% in data set [7] (bacterial cells, 4 h); 5% in data set [8] (bacterial cells, 4 h).
`CO[C@@]1(NC(=O)CCC[C@@H](N)C(=O)O)C(=O)N2C(C(=O)O)=C(C)CS[C@@H]21` [7β-(D-5-amino-5-carboxyvaleramido)-3-methyl-7-methoxy-3-cephem-4-carboxylic acid]: in [16] (50 ug/ml), the Bioactivity entry was “Inactive at 50 ug/ml”.
